Results as given in paper PMC8258697 (The Journal of Biological Chemistry, 2021).
Numbering of substitutions follows the chain as printed.

Columns and labels:
PPARγ:RXRα heterodimer = target: T1, PPARγ:RXRα heterodimer (Homo sapiens, UniProt P19793+P37231); assay: PPARγ:RXRα heterodimer formation HTRF assay, sGFP-RXRα LBD titrated against biotinylated PPARγ LBD coupled to Tb-SA; type: binding; conditions: 10 μM ligand compared with no ligand
T1 construct: His10-tag with TEV site (N, cleaved yes); made in house; host or cells: E. coli T7 express (co-expressed with GroEL/ES)
T1 sequence (P37231 234-505): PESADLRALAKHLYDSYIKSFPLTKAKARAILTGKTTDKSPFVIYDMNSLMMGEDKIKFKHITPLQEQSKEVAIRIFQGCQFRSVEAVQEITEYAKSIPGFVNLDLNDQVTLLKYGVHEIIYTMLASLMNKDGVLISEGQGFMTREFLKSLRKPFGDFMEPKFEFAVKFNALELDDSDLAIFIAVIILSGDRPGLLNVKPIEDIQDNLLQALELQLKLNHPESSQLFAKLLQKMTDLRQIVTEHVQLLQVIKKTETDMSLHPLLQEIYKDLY
T1 sequence (P19793 226-462): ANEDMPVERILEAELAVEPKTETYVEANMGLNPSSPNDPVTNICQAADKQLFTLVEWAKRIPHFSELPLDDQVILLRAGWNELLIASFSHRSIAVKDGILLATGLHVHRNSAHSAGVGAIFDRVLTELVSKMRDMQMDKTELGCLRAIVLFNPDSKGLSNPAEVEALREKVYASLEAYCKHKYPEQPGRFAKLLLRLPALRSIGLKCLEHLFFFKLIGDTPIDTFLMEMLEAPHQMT

RXRα LBD total mutant = target: T2, RXRα LBD total mutant (Homo sapiens, UniProt P19793, E453R/F450Y/K284E/V280T/V298T); assay: Coactivator recruitment HTRF assay on isolated RXRα LBD total mutant (SRC1-2 peptide); type: biochemical; conditions: 100 nM sGFP-RXRα LBD total mutant
T2 construct: His10-tag with TEV site (N, cleaved yes); made in house; host or cells: E. coli T7 express (co-expressed with GroEL/ES)
T2 sequence (P19793 226-462 V280T/K284E/V298T/F450Y/E453R): T1 sequence (P19793 226-462) with V55T, K59E, V73T, F225Y, E228R

PPARγ LBD [1] = target: T3, PPARγ LBD (Homo sapiens, UniProt P37231); assay: Two-dimensional titration of SR11237 and unlabeled mutant RXRα LBD: CBP-1 recruitment by sGFP-PPARγ LBD (HTRF); type: biochemical; conditions: combined addition of SR11237 and RXRα at concentrations equal to PPARγ (100 nM) and higher;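 as to HTRF mean; N=2: mutant RXRα LBD carries mutations that block its own coactivator recruitment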
T3 construct: MBP-Asn10-His8-TEV site (N, cleaved yes); made in house; host or cells: E. coli T7 express (co-expressed with GroEL/ES)
T3 sequence (P37231 1-505): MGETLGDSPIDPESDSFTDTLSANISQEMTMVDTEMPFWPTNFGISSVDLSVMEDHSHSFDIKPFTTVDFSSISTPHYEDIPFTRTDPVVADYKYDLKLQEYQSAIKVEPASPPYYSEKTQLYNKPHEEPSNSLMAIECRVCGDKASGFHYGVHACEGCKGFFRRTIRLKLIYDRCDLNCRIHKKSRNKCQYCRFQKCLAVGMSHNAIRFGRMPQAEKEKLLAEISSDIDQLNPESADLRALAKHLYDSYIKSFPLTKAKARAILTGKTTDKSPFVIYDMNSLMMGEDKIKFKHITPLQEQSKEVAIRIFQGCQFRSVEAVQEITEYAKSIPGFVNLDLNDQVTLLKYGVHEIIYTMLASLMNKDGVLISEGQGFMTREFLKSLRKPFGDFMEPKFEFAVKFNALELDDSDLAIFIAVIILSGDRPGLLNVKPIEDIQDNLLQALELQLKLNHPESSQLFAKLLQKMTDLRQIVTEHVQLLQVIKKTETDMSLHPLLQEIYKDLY

PPARγ LBD [2] = assay: as above; type: biochemical, human

Structure (SMILES): CC1(C)CCC(C)(C)c2cc(C3(c4ccc(C(=O)O)cc4)OCCO3)ccc21 [SR11237]
- effect on PPARγ:RXRα heterodimer formation (PPARγ:RXRα heterodimer): significant stabilizing effect
- stimulation of SRC1-2 coactivator recruitment (RXRα LBD total mutant): no stimulation of coactivator recruitment was observed
- CBP-1 recruitment relative to full activation of monomeric PPARγ with rosiglitazone (PPARγ LBD [1]): up to 26%
- HTRF mean; N=2 (PPARγ LBD [2]; SR11237 0.268435 nM, RXRα mutant LBD 0.976562 nM): 7866
- HTRF mean; N=2 (PPARγ LBD [2]; SR11237 0.268435 nM, RXRα mutant LBD 1.95312 nM): 7838
- HTRF mean; N=2 (PPARγ LBD [2]; SR11237 0.268435 nM, RXRα mutant LBD 3.90625 nM): 7920
- HTRF mean; N=2 (PPARγ LBD [2]; SR11237 0.268435 nM, RXRα mutant LBD 7.8125 nM): 7909
- HTRF mean; N=2 (PPARγ LBD [2]; SR11237 0.268435 nM, RXRα mutant LBD 31.25 nM): 7903
- HTRF mean; N=2 (PPARγ LBD [2]; SR11237 0.268435 nM, RXRα mutant LBD 62.5 nM): 8248
- HTRF mean; N=2 (PPARγ LBD [2]; SR11237 0.268435 nM, RXRα mutant LBD 250 nM): 8688
- HTRF mean; N=2 (PPARγ LBD [2]; SR11237 0.268435 nM, RXRα mutant LBD 500 nM): 8760
- HTRF mean; N=2 (PPARγ LBD [2]; SR11237 0.268435 nM, RXRα mutant LBD 1000 nM): 8782
- HTRF mean; N=2 (PPARγ LBD [2]; SR11237 0.671089 nM, RXRα mutant LBD 0.976562 nM): 8003
- HTRF mean; N=2 (PPARγ LBD [2]; SR11237 0.671089 nM, RXRα mutant LBD 1.95312 nM): 7881
- HTRF mean; N=2 (PPARγ LBD [2]; SR11237 0.671089 nM, RXRα mutant LBD 3.90625 nM): 7929
- HTRF mean; N=2 (PPARγ LBD [2]; SR11237 0.671089 nM, RXRα mutant LBD 7.8125 nM): 7967
- HTRF mean; N=2 (PPARγ LBD [2]; SR11237 0.671089 nM, RXRα mutant LBD 31.25 nM): 8123
- HTRF mean; N=2 (PPARγ LBD [2]; SR11237 0.671089 nM, RXRα mutant LBD 62.5 nM): 8262
- HTRF mean; N=2 (PPARγ LBD [2]; SR11237 0.671089 nM, RXRα mutant LBD 250 nM): 8624
- HTRF mean; N=2 (PPARγ LBD [2]; SR11237 0.671089 nM, RXRα mutant LBD 500 nM): 8662
- HTRF mean; N=2 (PPARγ LBD [2]; SR11237 0.671089 nM, RXRα mutant LBD 1000 nM): 8739
- HTRF mean; N=2 (PPARγ LBD [2]; SR11237 1.67772 nM, RXRα mutant LBD 0.976562 nM): 7886
- HTRF mean; N=2 (PPARγ LBD [2]; SR11237 1.67772 nM, RXRα mutant LBD 1.95312 nM): 7834
- HTRF mean; N=2 (PPARγ LBD [2]; SR11237 1.67772 nM, RXRα mutant LBD 3.90625 nM): 7842
- HTRF mean; N=2 (PPARγ LBD [2]; SR11237 1.67772 nM, RXRα mutant LBD 7.8125 nM): 7973
- HTRF mean; N=2 (PPARγ LBD [2]; SR11237 1.67772 nM, RXRα mutant LBD 31.25 nM): 8258
- HTRF mean; N=2 (PPARγ LBD [2]; SR11237 1.67772 nM, RXRα mutant LBD 62.5 nM): 8301
- HTRF mean; N=2 (PPARγ LBD [2]; SR11237 1.67772 nM, RXRα mutant LBD 250 nM): 8705
- HTRF mean; N=2 (PPARγ LBD [2]; SR11237 1.67772 nM, RXRα mutant LBD 500 nM): 8706
- HTRF mean; N=2 (PPARγ LBD [2]; SR11237 1.67772 nM, RXRα mutant LBD 1000 nM): 8875
- HTRF mean; N=2 (PPARγ LBD [2]; SR11237 10.4858 nM, RXRα mutant LBD 0.976562 nM): 7841
- HTRF mean; N=2 (PPARγ LBD [2]; SR11237 10.4858 nM, RXRα mutant LBD 1.95312 nM): 7813
- HTRF mean; N=2 (PPARγ LBD [2]; SR11237 10.4858 nM, RXRα mutant LBD 3.90625 nM): 7835
- HTRF mean; N=2 (PPARγ LBD [2]; SR11237 10.4858 nM, RXRα mutant LBD 7.8125 nM): 7963
- HTRF mean; N=2 (PPARγ LBD [2]; SR11237 10.4858 nM, RXRα mutant LBD 31.25 nM): 8186
- HTRF mean; N=2 (PPARγ LBD [2]; SR11237 10.4858 nM, RXRα mutant LBD 62.5 nM): 8299
- HTRF mean; N=2 (PPARγ LBD [2]; SR11237 10.4858 nM, RXRα mutant LBD 250 nM): 8710
- HTRF mean; N=2 (PPARγ LBD [2]; SR11237 10.4858 nM, RXRα mutant LBD 500 nM): 8818
- HTRF mean; N=2 (PPARγ LBD [2]; SR11237 10.4858 nM, RXRα mutant LBD 1000 nM): 8916
- HTRF mean; N=2 (PPARγ LBD [2]; SR11237 26.2144 nM, RXRα mutant LBD 0.976562 nM): 7919
- HTRF mean; N=2 (PPARγ LBD [2]; SR11237 26.2144 nM, RXRα mutant LBD 1.95312 nM): 7957
- HTRF mean; N=2 (PPARγ LBD [2]; SR11237 163.84 nM, RXRα mutant LBD 0.976562 nM): 7969
- HTRF mean; N=2 (PPARγ LBD [2]; SR11237 163.84 nM, RXRα mutant LBD 1.95312 nM): 7882
